Measured values reported in US20240408071A1, “NOVEL COMBINATION OF SEROTONIN RECEPTOR (5-HTR2B) ANTAGONIST AND AN IMMUNOMODULATOR AND CHEMOTHERAPEUTIC DRUGS FOR INHIBITION OF CANCER” (NATIONAL CENTRE FOR CELL SCIENCE, priority 2021, published 2024).

Experiments:
MC38 cells = assay: MTT cell viability assay; format: cell-based, mouse; conditions: graded dose; reduced serum media; 48 hours of stimulation
Description: FIG. 6 depicts that 5-HTR2B signalling in colon cancer affects cell proliferation and viability: Colon cancer MC38 cells were treated with serotonin (100 μM), 5-HTR2B agonist (BW-723C86; 50 μM), or 5-HTR2B antagonist (SB-215505; 50 μM) for 48 hours, and cell cycle analysis was performed by propidium iodide staining using flow cytometry. MC38 cells were also treated with a graded dose of 5-HTR2B agonist (BW-723C86) or serotonin. MTT assay was performed to measure cell viability. (A) After treatment with 5-HTR2B agonist BW-723C86, serotonin, or 5-HTR2B antagonist SB-215505, the relative cell cycle analysis is shown. (B) Relative cell viability data of MC38 cells following treatment of graded doses of 5-HTR2B agonist BW-723C86 or serotonin are shown. The data shown are representative of one of the three independent experiments. (C) MC38 tumor sections from the control tumor and 5-HTR2B antagonist treated tumor were stained for CD31 and the number of CD31^+ micro-blood vessels/mm^2 of tissue sections was counted and plotted to observe angiogenesis. Error bar represents ±standard error of the mean (SEM).
MC38 cells were cultured at a density of 0.5×10^4 cells/well in 96 well plates (flat bottom) and were allowed to adhere for 24 hours. […] Then, MTT crystals were dissolved with DMSO, and the reading was taken at 590 nm in an ELISA reader (Thermofisher). […]

4T1-Luc2 cells = assay: 4T1-Luc2 breast cancer model, tumor volume; format: in vivo, BALB/c mice; conditions: RS-127445 2 mg/kg/day + paclitaxel 2 mg/kg/alternate days; 4T1-luc2 model (FIG. 16A)
Description: FIG. 7 depicts that antagonizing the 5-HTR2B in mice inhibits breast and colon tumor growth: (A) MC38 colon cancer cells were injected subcutaneously into the right flank of C57BL/6 mice. […] Tumor volumes were measured and plotted. (B) MC38 colon cancer cells were injected subcutaneously into the right flank of C57BL/6 mice. After seven days when tumors became palpable, one group was treated with 5-HTR7 antagonist SB-269970 (n=6 mice; 3 mg/kg/day) or left untreated (n=6 mice). Tumor volume was measured and plotted. (C) After seven days of the setting of tumor growth, one group was treated with a serotonin transporter blocker (SSRI) sertraline hydrochloride (n=6 mice; 15 mg/kg/week) or left untreated (n=6 mice). Tumor volume was measured and plotted. (D) C57BL/6 mice were given subcutaneously injected MC38 cells. After seven days of tumor growth, one group of mice was treated with different doses of 5-HTR2B antagonist SB-215505 (n=6). Tumor volume was measured and plotted. […] Tumor volume was measured and plotted. […] Tumor growth was measured and plotted. […] Tumour volumes were measured and plotted. […] Tumour volumes were measured and plotted. […]
FIG. 16 depicts the effect of the 5-HTR2B antagonist on the FDA-approved chemotherapy drug treatment: (A) BALB/C mice were inoculated with 4T1-Luc2 cells in the mammary fat pad. […] Tumor volume was measured and plotted. […]

Compound | viability of MC38 cells (MC38 cells) | tumor growth, combination with paclitaxel (4T1-Luc2 cells)
CC(N)Cc1c[nH]c2ccc(OCc3cccs3)cc12 (centres unmarked) [BW-723C86] | enhanced the viability of MC38 cells | 
CC(C)c1cc(-c2ccc(F)c3ccccc23)nc(N)n1 [RS-127445] |  | much better response by reducing tumor growth than any of them alone
